Reference: patent publication US20210008161A1, “METHODS AND COMPOSITIONS FOR IMPROVED HOMOLOGY DIRECTED REPAIR” (CRISPR THERAPEUTICS AG, priority 2019, published 2021)

Key:
HEK293 T cells = assay: BFP to GFP fluorescent reporter assay of HDR efficiency (AAVS1 locus); format: cell-based, human; settings: different concentrations/doses, FIG. 1B, 1C
Experimental: An in vitro assay was conducted to determine the ability of various inhibitors and enhancers to improve the efficiency of HDR repair in HEK293 T cells. Specifically, a fluorescent reporter-based screening approach was developed to identify molecules that enhance gene-editing by HDR. A reporter system was generated in HEK293 T cells comprising a genomic AAVS1 locus that encoded either a blue fluorescent protein (BFP) or a green fluorescent protein (GFP) within the AAVS1 locus. A gene encoding BFP can be converted to a gene encoding GFP by substitution of cytosine at position 199 to uridine (e.g., a C to U transition at position 199). By introducing a DSB within the BFP gene using a CRISPR/Cas9 gene-editing system, a homology donor DNA encoding the nucleotide substitution can be used to edit the BFP gene to a GFP gene by HDR repair. Thus, a gene edit that induces a C to U transition at position 199 results in a change in cellular fluorescence. A change in the fluorescence of the cell measured by flow cytometry can be used to quantify efficiency of HDR repair. Additionally, the reverse gene edit can be performed for an AAVS1 locus encoding a GFP gene, wherein a GFP can be converted to BFP by substitution of uridine at position 199 to cytosine.
To create the reporter system, an AAV-based homology donor DNA encoding either BFP or GFP was created. The AAV-BFP or AAV-GFP donor was flanked by homology arms that were 1000 base pairs in length and expression of BFP or GFP was driven by the MND promoter (e.g., a synthetic promoter that contains the U3 region of a modified Moloney murine leukemia virus long term terminal repeat with myeloproliferative sarcoma virus enhancer and deleted negative control region, SEQ ID NO: 58). The viral DNA was packaged into capsids of adeno-associated virus serotype 6 (AAV6) vector. Either the BFP or GFP donor was introduced using the AAV6 vector into the AAVS1 locus in HEK293 T cells by homologous recombination using CRISPR-Cas9 as follows: purified Cas9 protein was complexed with two different single gRNAs (sgRNAs) targeting the AAVS1 locus at SEQ ID NO: 3 (spacer sequence identified by SEQ ID NO: 4; gRNA obtained from Maxcyte) or SEQ ID NO: 5 (spacer sequence identified by SEQ ID NO: 6; gRNA obtained from Thermo Fisher). Cas9 protein used in the Exemplary section provided herein refers to Cas9 polypeptide derived from S. pyogenes (SpCas9), unless indicated otherwise.
The Cas9-sgRNA complex was electroporated into the HEK293 T cells using the Lonza Nucleofector program CM-130. Approximately, 2 hours after electroporation, the cells were infected with various viral doses of AAV6 encoding a BFP (SEQ ID NO: 44) or GFP homology donor (SEQ ID NO: 47). One week later, cells were analyzed by flow cytometry to verify integration and expression of BFP or GFP in the AAVS1 locus. HEK293 T cells expressing BFP or GFP were sorted into single cells in 96-well plates. After ˜2 weeks of growth, DNA extracted from individual cells was analyzed for precise integration of the respective BFP or GFP gene into the AAVS1 locus by long-range PCR. This PCR analysis allowed for determination of whether the BFP/GFP gene was integrated in one or both alleles of the AAVS1 locus.
To introduce a gene edit that converts BFP to GFP, cells were electroporated with ribonucleoprotein (RNP) comprised of Cas9 and sgRNA that targets the BFP gene encoded in the AAVS1 locus. The sgRNA targeted a sequence in the BFP gene identified by SEQ ID NO: 7 (sgRNA spacer sequence identified by SEQ ID NO: 8). The sgRNA were prepared using a standard sgRNA cassette specific to SpCas9, as indicated by SEQ ID NO: 2 (wherein a, c, g, u represent 2′ O-methyl phosphorothioate nucleotides; s represents phosphorothioate nucleotides; and A, C, G, U, N represent canonical RNA nucleotides). The gRNAs used in the Exemplary section provided herein were sgRNAs prepared with the SpCas9 sgRNA cassette unless indicated otherwise. […]

CD34-expressing LT-HSPCs = assay: HDR insertion of AAV-delivered GFP donor into HBB locus (GFP fluorescence); format: cell-based, human; settings: HBB locus in LT-HSPCs; any dose tested; data not shown
Experimental: Frozen CD34-expressing LT-HSPCs derived from plerixafor (i.e., Mozibil®)+GCSF-dual mobilized peripheral blood obtained from healthy human donors were purchased from a commercial vendor. LT-HSPCs were maintained in culture media comprised of the reagents shown in Table 4 and were incubated at 37° C., 5% carbon dioxide, 4% oxygen. […] 2×10^5 cells were edited with 3 μg Cas9 and 3 μg gRNA. The target gene sequence (including target sequence with PAM), R02 spacer sequence, and R02 sgRNA sequence are identified in Table 3.
The cells were transfected with a dsDNA homology donor encoding GFP under a SFFV promoter (SEQ ID NO: 60) that was delivered by AAV (SEQ ID NO: 56). […] The HDR efficiency was determined by measuring the level of GFP fluorescence in the cells following electroporation. To determine the effect of 53BP1 inhibition on HDR efficiency, the 53BP1 inhibitor i53 was introduced as an mRNA-encoded protein to the cells during electroporation with Cas9/gRNA RNP and AAV DNA that serves as a donor for homology directed repair.
The effect of 53BP1 inhibition on HDR efficiency was compared to other mRNA-encoded proteins that inhibit the NHEJ pathway. These included the proteins CYREN1 and CYREN2 that inhibit Ku70/80, a heterodimer that binds DNA blunt ends to prevent processing of 3′ single-stranded DNA tails necessary for HDR repair. Cells were electroporated with RNP, an AAV-GFP homology donor and mRNA encoding either i53 (mRNA ORF shown in SEQ ID NO: 69), CYREN1, or CYREN2.
The effect of treatment with i53 and Nu7441 was compared for improving efficiency of HDR repair of the HBB locus. Cells were treated with different doses of Nu7441 or with mRNA encoding i53 (ORF shown by SEQ ID NO: 69).

CCCCCCNC(=O)Nc1ccc(S(=O)(=O)Nc2ccc(CCNC[C@H](O)COc3ccc(O)cc3)cc2)cc1 [L755,507]
HDR efficiency (HEK293 T cells): no improvement

C[C@]1(c2nc3c(C(N)=O)cccc3[nH]2)CCCN1 [Veliparib]
HDR efficiency (HEK293 T cells): no improvement

Cl.O=c1[nH]c([C@@H]2CCCN2)nc2c1oc1ccc(Cl)cc12 [XL 413, reference compound]
HDR efficiency (CD34-expressing LT-HSPCs): no improvement
